# Test results: patent publication US20110105515A1, “TARGETING THE ONCOPROTEIN NUCLEOPHOSMIN” (President and Fellows of Harvard College, priority 2007, published 2011)
# “Also recorded” adds a separate entry of the source.
# How the values were obtained:
# [1] = system: T-47D cells; test: Antiproliferative assay (CellTiter-Blue), T-47D cells; assay type: cell-based, human; conditions: 72-h incubation
# Description: G. Antiproliferative Assays. […] The cell suspension was diluted to 1.0×10^5 cells/mL. A multichannel pipette was used to load the wells of a 96-well plate with 100 μL per well of the diluted cell suspension. […] The following day, 100-μg portions of the nitrone samples were removed from the freezer, thawed, and dissolved in filter-sterilized DMSO to a concentration of 5 mM. A 6.5-μL aliquot of the nitrone solution was dissolved in 643.5 μL of medium to achieve a working concentration of 50 μM. Serial dilutions were employed to generate a range of different concentrations for analysis. Finally, 100-μL aliquots of this diluted nitrone solution were added to the wells containing adhered cells, resulting in final assay concentrations of up to 25 μM. The treated cells were incubated for 72 h at 37° C. (5% CO2). To each well was added 20 μL of CellTiter-Blue reagent, and the samples were returned to the incubator. Fluorescence (560 nm excitation/590 nm emission) was recorded on a 96-well plate reader following a 4.0-h incubation period (37° C., 5% CO2). Percent growth inhibition was calculated for each well, based upon the following formula: Percent growth inhibition=100×(S−B0)/(Bt−B0); where S is the sample reading, Bt is the average reading for a vehicle-treated population of cells at the completion of the assay, and B0 is the average reading for an untreated population of cells at the beginning of the assay. Each analogue was run a minimum of eight times, over a period of at least two weeks. For each compound, 14 separate concentrations were used in the assay, ranging from 25 μM to 8 nM. The average inhibition at each concentration was plotted against concentration, and a curve fit was generated. […] Final GI50 values reflect the concentrations at which the resulting curves pass through 50 percent inhibition.
# The cell suspension was diluted to 1.0×10^5 cells/mL. A multichannel pipette was used to charge the wells of a 96-well plate with 100 μL per well of the diluted cell suspension.
# The following day, a 6.5-μL aliquot of nitrone solution, at 5 mM in DMSO, was diluted in 643.5 μL of medium to achieve a working concentration of 50 μM. Serial dilutions were employed to generate a range of different concentrations for analysis. Finally, 100-μL aliquots of the diluted nitrone solutions were added to the wells containing adhered cells, resulting in final assay concentrations of up to 25 μM.
# The treated cells were incubated for 72 h at 37° C. (5% CO2). To each well was added 20 μL of CellTiter-Blue reagent, and the samples were returned to the incubator. Fluorescence (560 nm excitation/590 nm emission) was recorded on a 96-well plate reader following a 4.0 h incubation period (37° C., 5% CO2).
# Percent growth inhibition was calculated for each well, based upon the following formula:
# Percent growth inhibition=100×(S−B0)/(Bt−B0)
# where S is the sample reading, Bt is the average reading for a vehicle-treated population of cells at the completion of the assay, and B0 is the average reading for an untreated population of cells at the beginning of the assay.
# [2] = molecular target: T1, exportin-1 (XPO1) (Homo sapiens, UniProt O14980); test: Competitive binding affinity-isolation with probe 5 in T-47D lysates, exportin-1; conditions: 10 μM probe 5, 100 μM inhibitor
# T1 construct: endogenous in cells; host or cells: T-47D lysate
# Description: (§1) The supernatant was discarded.
# (§2) See above for solution preparation.
# [3] = molecular target: T2, peroxiredoxin 1 (PRX1) (Homo sapiens, UniProt Q06830); test: Competitive binding affinity-isolation with probe 5 in T-47D lysates, peroxiredoxin 1; conditions: 10 μM probe 5, 100 μM inhibitor
# T2 construct: endogenous in cells; host or cells: T-47D lysate
# Description: as §1, §2
# [4] = molecular target: T3, nucleophosmin (Homo sapiens, UniProt P06748); test: Competitive binding affinity-isolation with probe 5 in T-47D lysates, nucleophosmin; conditions: for inhibition of binding of nucleophosmin to probe 5 by analogues (FIG. 4): T-47D nuclear-enriched lysate
# [5] = system: MALME-3M and MALME-3 cells; test: Selectivity assay, malignant melanoma MALME-3M versus fibroblast MALME-3; assay type: cell-based; conditions: MALME-3M versus MALME-3
# Description: […]. A cell line from a healthy fibroblast from the same patient has also been deposited with the American Type Cell Culture Corporation (ATCC). Fresh stockes of both MALME-3M and MALME-3 from ATCC. Avrainvillamide was test against the two cells lines at the same time, taking all possible precautions to ensure that both sets of samples were treated identically. […] As a measure of cytotoxicity and antiproliferative activity, we calculated both LC50 and LC25 (as an estimate of GI50).
# The 9.7-fold selectivity at 25 percent cell death is representative of at least a modest degree of selectivity. For comparison, cytochalsine B and geldanamycin were analyzed in identical experiments. Cytochalasine B is a non-selective cytotoxic agent for which a selectivity factor of 0.2 at 25 percent cell death was observed. Geldanamycin is known to be a potent, selective inhibitor of tumor cell growth for which a selectivity factor of >100 at 25 percent cell death was observed.
# [6] = system: LNCaP cells; test: Antiproliferative assay (CellTiter-Blue), LNCaP cells; assay type: cell-based, human; conditions: 72-h incubation
# Description: G. Antiproliferative Assays. […] The cell suspension was diluted to 1.0×10^5 cells/mL. A multichannel pipette was used to load the wells of a 96-well plate with 100 μL per well of the diluted cell suspension. […] The following day, 100-μg portions of the nitrone samples were removed from the freezer, thawed, and dissolved in filter-sterilized DMSO to a concentration of 5 mM. A 6.5-μL aliquot of the nitrone solution was dissolved in 643.5 μL of medium to achieve a working concentration of 50 μM. Serial dilutions were employed to generate a range of different concentrations for analysis. […] Fluorescence (560 nm excitation/590 nm emission) was recorded on a 96-well plate reader following a 4.0-h incubation period (37° C., 5% CO2). Percent growth inhibition was calculated for each well, based upon the following formula: Percent growth inhibition=100×(S−B0)/(Bt−B0); where S is the sample reading, Bt is the average reading for a vehicle-treated population of cells at the completion of the assay, and B0 is the average reading for an untreated population of cells at the beginning of the assay. […]
# The treated cells were incubated for 72 h at 37° C. […] Fluorescence (560 nm excitation/590 nm emission) was recorded on a 96-well plate reader following a 4.0 h incubation period (37° C., 5% CO2).
# Percent growth inhibition was calculated for each well, based upon the following formula: […]
# [7] = system: proteins of T-47D cells; test: Affinity-isolation from T-47D cells, LC-MS/MS analysis of proteins; conditions: narrower region of the gel; equal concentrations
# [8] = molecular target: NPM1.3 (nucleophosmin isoform) (Homo sapiens, UniProt P06748, C275A); test: Affinity-isolation of NPM1.3 cysteine to alanine mutants expressed in COS-7 cells with probe 5; conditions: 1 μM probe 5, COS-7 cell lysates
# [9] = system: NPM1.3 (nucleophosmin isoform); test: as above; conditions: 1 μM probe 5, COS-7 cell lysates
# [10] = molecular target: T3, nucleophosmin; test: Affinity-isolation from incubations with live T-47D cells, Western-blot detection of nucleophosmin; assay type: binding; design: endogenous in cells; host or cells: T-47D (live cells, whole-cell lysate, nuclear-enriched lysate); conditions: 3 μM 5 versus 9 μM 3, 90 min
# Description: To identify potential binding proteins, populations of healthy (adherent) T-47D cells were treated with the newly synthesized biotin conjugate 5 or the structurally simpler biotin-containing probe 3, previously studied. As a control, a separate population of cells was treated with the biotin derivative 7, which lacks the unsaturated nitrone function. The treated cells were incubated with probe or control for 90 min at 37° C., then were harvested, washed and lysed. The individual lysates were exposed to an agarose resin to remove nonspecific binding proteins. After centrifugation, the supernatants were then exposed to a streptavidin-agarose resin. This resin was collected by centrifugation and washed. Bound proteins were released by heat-denaturation, separated by SDS-PAGE, and analyzed by LC-MS/MS and Western-blot.
# The lysates were transferred to fresh 1.7-mL centrifuge tubes. Each individual sample lysate was treated with 50 μL of washed, well-suspended, two-fold diluted Sepharose resin. […] The supernatant was transferred to a clean 1.7-mL centrifuge tube.
# as §1
# [11] = molecular target: T3, nucleophosmin; test: Titration of probe 5-nucleophosmin binding in T-47D whole cell lysate; design: endogenous in cells; host or cells: T-47D (live cells, whole-cell lysate, nuclear-enriched lysate); conditions: whole-cell lysates of T-47D cells
# Description: as §1
# A 1-mL aliquot of T-47D whole cell lysate was thawed at 4° C. and diluted with 4 mL wash buffer, to afford a working lysate of 1.5 mg/mL total protein.
# [12] = molecular target: T3, nucleophosmin; test: Affinity-isolation following co-incubation with iodoacetamide; assay type: binding; design: endogenous in cells; host or cells: T-47D (live cells, whole-cell lysate, nuclear-enriched lysate); conditions: 10 μM probe 5, 10 mM iodoacetamide; whole cell lysate
# Description: Identical affinity-isolation experiments to those described in the previous section were performed, except that iodoacetamide (8 μL of a freshly prepared 500 mM solution in DMSO) was added to one sample: […]
smiles,measurement,setting,value
"CC1(C)C=Cc2c(ccc3c2[N+]([O-])=C2C3=C[C@@]34NC(=O)[C@]5(CCCN5C3=O)C[C@H]4C2(C)C)O1 (single isomer, unassigned; ent-1) [ent-1, (−)-avrainvillamide]",fold less potent than (+)-1 as inhibitor of T-47D cell growth,[1],~3 fold
same,blocking of the binding of probe 5 to exportin-1 (XPO1),[2],capable of blocking
same,blocking of the binding of probe 5 to peroxiredoxin 1 (PRX1),[3],capable of blocking
same,binding of nucleophosmin to probe 5 in the presence of a 10-fold higher concentration of competitor,"[4]; 10 μM probe 5, 100 μM competitor, nuclear-enriched and whole-cell T-47D lysates",not diminished
same,concentration required for inhibition of probe 5-nucleophosmin binding,[4]; T-47D lysate,500 µM
same,fold higher concentration versus 1 required for inhibition of probe 5-nucleophosmin binding,[4]; T-47D lysate,~5 fold
"C=C1[C@@H](C)[C@H]2[C@H](Cc3ccccc3)NC(=O)[C@]23OC(=O)/C=C/[C@H](O)CCC[C@@H](C)C/C=C/[C@H]3[C@@H]1O [Cytochalasine B, reference compound]","selectivity factor, melanoma cells relative to fibroblast control (LC25, 25 percent cell death, estimate of GI50)",[5],0.2
"COC1=C2C[C@@H](C)C[C@H](OC)[C@H](O)[C@@H](C)/C=C(\C)[C@H](OC(N)=O)[C@@H](OC)/C=C\C=C(/C)C(=O)NC(=CC1=O)C2=O [Geldanamycin, reference compound]","selectivity factor, melanoma cells relative to fibroblast control (LC25, 25 percent cell death, estimate of GI50)",[5],> 100
CN(C)c1cccc2c(S(=O)(=O)NCCCCCCCCCCOc3ccc4c(c3)[N+]([O-])=C3C4=C[C@@]45NC(=O)C6(CCCN6C4=O)CC5C3(C)C)cccc12 (some centres unmarked) [compound 4],"inhibition of the growth of T-47D cells (antiproliferative potency, in words)",[1],potencies similar to the natural product
CC1(C/C=C/CCCCCCCCOC(=O)CCCC[C@@H]2SC[C@@H]3NC(=O)N[C@@H]32)C=Cc2c(ccc3c2[N+]([O-])=C2C3=C[C@@]34NC(=O)C5(CCCN5C3=O)CC4C2(C)C)O1 (some centres unmarked) [compound 5],"inhibition of the growth of T-47D cells (antiproliferative potency, in words)",[1],potencies similar to the natural product
same,"inhibition of the growth of T-47D cells (antiproliferative potency, in words)",[1]; listed as biotin-avrainvillamide conjugate,nearly equipotent to (+)-avrainvillamide
same,"inhibition of the growth of LNCaP cells (antiproliferative potency, in words)",[6],somewhat less potent than the dansyl conjugate (4)
same,detection of nucleophosmin by LC-MS/MS after affinity isolation,[7],detected
same,effect of deletion of cys275 on affinity-isolation of NPM1.3,[8],greatly reduced
same,effect of deletion of cys21 or cys104 on affinity-isolation of NPM1.3,[9],little effect
same,affinity-isolation of nucleophosmin by biotinylated probe (Western-blot),[10],more effectively bound nucleophosmin; also recorded: selectively bind
same,concentration of probe sufficient to afford detectable levels of nucleophosmin,[11],100 to 500 nM
"COCCCCCCCCCCNS(=O)(=O)c1cccc2c(N(C)C)cccc12 [compound 6, reference compound]","inhibition of the growth of T-47D cells (antiproliferative potency, in words)",[1],inactive
same,"inhibition of the growth of LNCaP cells (antiproliferative potency, in words)",[6],inactive
CC1(C)C2=[N+]([O-])c3cc(-c4ccccc4)ccc3C2=C[C@@]23NC(=O)C4(CCCN4C2=O)CC13 (some centres unmarked) [compound 8],"inhibition of the growth of T-47D cells (antiproliferative potency, in words)",[1],nearly as potent as avrainvillamide
same,inhibition of binding of nucleophosmin to probe 5 by analogues (FIG. 4),[4],inhibited essentially equivalently
CC1(C)C2=[N+]([O-])c3ccc(-c4ccccc4)cc3C2=C[C@@]23NC(=O)C4(CCCN4C2=O)CC13 (some centres unmarked) [compound 9],fold less potent than (+)-1 as inhibitor of T-47D cell growth,[1],3 fold
same,inhibition of binding of nucleophosmin to probe 5 by analogues (FIG. 4),[4],only partially inhibited
CC1(C)C2=[N+]([O-])c3cc(C#Cc4ccccc4)ccc3C2=C[C@@]23NC(=O)C4(CCCN4C2=O)CC13 (some centres unmarked) [compound 10],inhibition of binding of nucleophosmin to probe 5 by analogues (FIG. 4),[4],least effectively inhibited
CC1(C)C2=[N+]([O-])c3c(cccc3-c3ccccc3)C2=C[C@@]23NC(=O)C4(CCCN4C2=O)CC13 (some centres unmarked) [compound 11],inhibition of binding of nucleophosmin to probe 5 by analogues (FIG. 4),[4],least effectively inhibited
NC(=O)CI [iodoacetamide],binding of nucleophosmin to probe 5 in the presence of a 1000-fold excess,[12],substantially reduced
